What was measured:
[1] = biological target: T1, 5-hydroxytryptamine receptor 2C (Homo sapiens, UniProt P28335)
T1 sequence (P28335 whole entry): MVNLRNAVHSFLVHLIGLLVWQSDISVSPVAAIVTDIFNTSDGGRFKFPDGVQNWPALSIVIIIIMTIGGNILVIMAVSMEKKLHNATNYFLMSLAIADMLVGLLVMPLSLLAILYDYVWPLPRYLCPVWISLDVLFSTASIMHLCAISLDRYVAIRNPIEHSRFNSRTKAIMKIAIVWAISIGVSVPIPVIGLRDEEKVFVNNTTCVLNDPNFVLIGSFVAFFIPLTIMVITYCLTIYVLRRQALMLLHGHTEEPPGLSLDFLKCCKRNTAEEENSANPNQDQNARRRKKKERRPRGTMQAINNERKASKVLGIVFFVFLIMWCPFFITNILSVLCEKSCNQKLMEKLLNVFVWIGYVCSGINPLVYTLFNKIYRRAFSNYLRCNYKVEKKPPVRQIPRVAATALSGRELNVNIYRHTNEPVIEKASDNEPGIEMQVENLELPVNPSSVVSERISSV
Description: (§1) Binding affinity to human 5HT2C receptor by radioligand displacement assay

[2] = biological target: 5-hydroxytryptamine receptor 7 (Homo sapiens, UniProt P34969)
Sequence of 5-hydroxytryptamine receptor 7 (P34969 whole entry): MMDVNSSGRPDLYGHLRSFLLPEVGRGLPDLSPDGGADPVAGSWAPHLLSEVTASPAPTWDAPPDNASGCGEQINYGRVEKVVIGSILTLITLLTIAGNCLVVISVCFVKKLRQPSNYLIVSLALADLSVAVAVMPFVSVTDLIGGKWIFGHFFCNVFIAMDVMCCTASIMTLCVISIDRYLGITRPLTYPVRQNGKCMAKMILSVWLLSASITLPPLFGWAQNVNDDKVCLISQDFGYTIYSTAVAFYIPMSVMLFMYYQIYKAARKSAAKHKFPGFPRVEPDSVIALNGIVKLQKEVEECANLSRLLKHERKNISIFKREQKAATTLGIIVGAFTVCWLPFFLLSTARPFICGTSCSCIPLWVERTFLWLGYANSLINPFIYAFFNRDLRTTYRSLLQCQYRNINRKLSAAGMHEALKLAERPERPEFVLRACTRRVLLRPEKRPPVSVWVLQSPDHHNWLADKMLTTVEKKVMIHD
Description: Displacement of [3H]LSD from human 5HT7 receptor by liquid scintillation counting

[3] = biological target: Sodium-dependent serotonin transporter (Homo sapiens, UniProt P31645)
Sequence of Sodium-dependent serotonin transporter (P31645 whole entry): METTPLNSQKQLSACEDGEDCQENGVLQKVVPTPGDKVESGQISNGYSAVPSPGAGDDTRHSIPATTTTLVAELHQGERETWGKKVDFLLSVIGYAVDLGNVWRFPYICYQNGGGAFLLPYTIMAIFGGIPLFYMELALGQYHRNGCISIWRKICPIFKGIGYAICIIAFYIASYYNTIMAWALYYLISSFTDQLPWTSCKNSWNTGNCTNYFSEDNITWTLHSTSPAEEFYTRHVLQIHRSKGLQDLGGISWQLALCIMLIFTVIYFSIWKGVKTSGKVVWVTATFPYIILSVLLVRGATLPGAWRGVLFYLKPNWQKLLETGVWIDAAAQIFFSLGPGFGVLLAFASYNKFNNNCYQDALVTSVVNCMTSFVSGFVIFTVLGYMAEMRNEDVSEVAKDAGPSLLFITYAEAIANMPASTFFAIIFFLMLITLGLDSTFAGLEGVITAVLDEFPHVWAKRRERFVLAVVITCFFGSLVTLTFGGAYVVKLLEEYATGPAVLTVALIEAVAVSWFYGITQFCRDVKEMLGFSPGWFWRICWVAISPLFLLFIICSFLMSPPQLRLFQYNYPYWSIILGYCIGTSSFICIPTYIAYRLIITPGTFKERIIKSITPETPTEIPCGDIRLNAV
Description: Displacement of [3H]Citalopram from human SERT by liquid scintillation counting

[4] = biological target: T2, D(4) dopamine receptor (Rattus norvegicus, UniProt P30729)
T2 sequence (P30729 whole entry): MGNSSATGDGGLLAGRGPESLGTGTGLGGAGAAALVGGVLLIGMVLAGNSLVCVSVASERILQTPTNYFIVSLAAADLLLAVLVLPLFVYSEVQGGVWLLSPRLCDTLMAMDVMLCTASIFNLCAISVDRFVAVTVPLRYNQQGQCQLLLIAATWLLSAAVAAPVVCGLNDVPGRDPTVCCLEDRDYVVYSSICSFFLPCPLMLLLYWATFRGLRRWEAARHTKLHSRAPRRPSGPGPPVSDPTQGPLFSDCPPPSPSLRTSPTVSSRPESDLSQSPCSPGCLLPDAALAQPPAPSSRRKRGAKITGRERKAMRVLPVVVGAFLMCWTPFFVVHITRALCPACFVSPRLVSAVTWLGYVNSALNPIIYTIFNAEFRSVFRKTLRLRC
Description: Displacement of [3H]N-methylspiperone from rat dopamine D4 receptor by liquid scintillation counting

[5] = biological target: T3, 5-hydroxytryptamine receptor 1A (Homo sapiens, UniProt P08908)
T3 sequence (P08908 whole entry): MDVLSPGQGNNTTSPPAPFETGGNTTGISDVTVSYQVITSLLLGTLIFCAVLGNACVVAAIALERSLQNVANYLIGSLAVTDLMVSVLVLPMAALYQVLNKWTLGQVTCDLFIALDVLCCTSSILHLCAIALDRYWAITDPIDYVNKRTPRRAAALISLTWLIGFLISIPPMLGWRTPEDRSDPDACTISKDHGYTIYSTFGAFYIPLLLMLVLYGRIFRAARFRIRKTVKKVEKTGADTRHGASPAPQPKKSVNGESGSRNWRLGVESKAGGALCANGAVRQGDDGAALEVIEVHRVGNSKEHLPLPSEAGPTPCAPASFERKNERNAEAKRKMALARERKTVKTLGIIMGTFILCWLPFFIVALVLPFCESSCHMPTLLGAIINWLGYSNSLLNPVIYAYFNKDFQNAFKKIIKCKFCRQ
Description: Displacement of [3H]8-OH-DPAT from human 5HT1A receptor by liquid scintillation counting

[6] = biological target: D(2) dopamine receptor (Homo sapiens, UniProt P14416)
Sequence of D(2) dopamine receptor (P14416 whole entry): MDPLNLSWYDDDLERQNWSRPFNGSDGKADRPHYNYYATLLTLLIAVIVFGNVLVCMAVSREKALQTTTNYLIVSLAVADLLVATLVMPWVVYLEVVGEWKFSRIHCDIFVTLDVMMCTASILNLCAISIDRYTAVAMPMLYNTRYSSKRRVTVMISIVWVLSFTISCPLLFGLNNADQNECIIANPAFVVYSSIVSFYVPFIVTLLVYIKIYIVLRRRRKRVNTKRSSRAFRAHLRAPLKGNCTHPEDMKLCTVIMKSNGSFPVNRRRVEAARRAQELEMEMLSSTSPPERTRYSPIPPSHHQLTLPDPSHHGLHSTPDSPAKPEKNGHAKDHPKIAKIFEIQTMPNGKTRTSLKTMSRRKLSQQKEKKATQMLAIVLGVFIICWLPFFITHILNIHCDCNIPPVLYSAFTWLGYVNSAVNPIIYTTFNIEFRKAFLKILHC
Description: Displacement of [3H]N-methylspiperone from human dopamine D2 receptor by liquid scintillation counting

[7] = biological target: 5-hydroxytryptamine receptor 2A (Homo sapiens, UniProt P28223)
Sequence of 5-hydroxytryptamine receptor 2A (P28223 whole entry): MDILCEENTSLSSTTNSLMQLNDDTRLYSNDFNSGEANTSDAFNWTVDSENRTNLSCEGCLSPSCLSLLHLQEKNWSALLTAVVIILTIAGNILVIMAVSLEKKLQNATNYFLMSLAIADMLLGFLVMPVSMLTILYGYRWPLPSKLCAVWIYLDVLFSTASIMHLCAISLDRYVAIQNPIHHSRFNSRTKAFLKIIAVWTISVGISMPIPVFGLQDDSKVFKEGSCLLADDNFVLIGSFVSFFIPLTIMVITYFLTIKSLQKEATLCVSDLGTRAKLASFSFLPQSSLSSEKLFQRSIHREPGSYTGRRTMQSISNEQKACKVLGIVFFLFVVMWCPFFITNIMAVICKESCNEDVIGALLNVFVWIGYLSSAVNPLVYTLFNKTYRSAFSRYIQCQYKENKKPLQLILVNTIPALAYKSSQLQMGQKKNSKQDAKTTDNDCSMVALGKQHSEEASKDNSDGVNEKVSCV
Description: Displacement of [3H]Ketanserin from human 5HT2A receptor by liquid scintillation counting

[8] = biological target: Sodium-dependent dopamine transporter (Homo sapiens, UniProt Q01959)
Sequence of Sodium-dependent dopamine transporter (Q01959 whole entry): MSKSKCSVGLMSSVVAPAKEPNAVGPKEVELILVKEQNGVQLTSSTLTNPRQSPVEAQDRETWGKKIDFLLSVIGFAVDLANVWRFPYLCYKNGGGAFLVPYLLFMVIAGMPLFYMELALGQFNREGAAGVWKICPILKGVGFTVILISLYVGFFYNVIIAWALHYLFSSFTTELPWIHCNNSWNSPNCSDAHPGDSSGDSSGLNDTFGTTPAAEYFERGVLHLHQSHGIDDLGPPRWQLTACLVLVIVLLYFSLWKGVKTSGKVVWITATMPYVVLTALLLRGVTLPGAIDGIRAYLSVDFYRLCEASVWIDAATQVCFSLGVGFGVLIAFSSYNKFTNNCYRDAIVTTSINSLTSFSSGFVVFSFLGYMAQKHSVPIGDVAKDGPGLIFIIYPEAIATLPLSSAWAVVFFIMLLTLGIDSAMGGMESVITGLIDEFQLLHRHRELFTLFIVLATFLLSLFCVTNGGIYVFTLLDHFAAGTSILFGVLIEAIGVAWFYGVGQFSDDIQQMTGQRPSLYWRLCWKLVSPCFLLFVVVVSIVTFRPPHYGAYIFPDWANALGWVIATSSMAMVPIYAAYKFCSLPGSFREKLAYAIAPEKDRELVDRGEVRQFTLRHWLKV
Description: Displacement of [3H]GBR12935 from human DAT by liquid scintillation assay

[9] = biological target: Histamine H1 receptor (Homo sapiens, UniProt P35367)
Sequence of Histamine H1 receptor (P35367 whole entry): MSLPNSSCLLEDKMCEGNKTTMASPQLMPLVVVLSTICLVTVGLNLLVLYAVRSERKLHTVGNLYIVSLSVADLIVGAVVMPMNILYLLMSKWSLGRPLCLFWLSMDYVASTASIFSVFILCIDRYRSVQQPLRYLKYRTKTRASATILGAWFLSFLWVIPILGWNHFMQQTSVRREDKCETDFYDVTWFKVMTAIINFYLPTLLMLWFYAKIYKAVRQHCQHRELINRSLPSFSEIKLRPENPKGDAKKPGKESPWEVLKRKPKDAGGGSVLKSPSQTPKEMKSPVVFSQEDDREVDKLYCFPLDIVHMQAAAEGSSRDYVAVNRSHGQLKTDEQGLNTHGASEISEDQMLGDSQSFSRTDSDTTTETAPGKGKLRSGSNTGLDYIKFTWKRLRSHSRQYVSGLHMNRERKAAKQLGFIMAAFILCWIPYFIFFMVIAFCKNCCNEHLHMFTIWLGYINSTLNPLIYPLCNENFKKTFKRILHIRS
Description: Displacement of [3H]Pyrilamine from human H1 histamine receptor by liquid scintillation assay

[10] = biological target: Sodium-dependent noradrenaline transporter (Homo sapiens, UniProt P23975)
Sequence of Sodium-dependent noradrenaline transporter (P23975 whole entry): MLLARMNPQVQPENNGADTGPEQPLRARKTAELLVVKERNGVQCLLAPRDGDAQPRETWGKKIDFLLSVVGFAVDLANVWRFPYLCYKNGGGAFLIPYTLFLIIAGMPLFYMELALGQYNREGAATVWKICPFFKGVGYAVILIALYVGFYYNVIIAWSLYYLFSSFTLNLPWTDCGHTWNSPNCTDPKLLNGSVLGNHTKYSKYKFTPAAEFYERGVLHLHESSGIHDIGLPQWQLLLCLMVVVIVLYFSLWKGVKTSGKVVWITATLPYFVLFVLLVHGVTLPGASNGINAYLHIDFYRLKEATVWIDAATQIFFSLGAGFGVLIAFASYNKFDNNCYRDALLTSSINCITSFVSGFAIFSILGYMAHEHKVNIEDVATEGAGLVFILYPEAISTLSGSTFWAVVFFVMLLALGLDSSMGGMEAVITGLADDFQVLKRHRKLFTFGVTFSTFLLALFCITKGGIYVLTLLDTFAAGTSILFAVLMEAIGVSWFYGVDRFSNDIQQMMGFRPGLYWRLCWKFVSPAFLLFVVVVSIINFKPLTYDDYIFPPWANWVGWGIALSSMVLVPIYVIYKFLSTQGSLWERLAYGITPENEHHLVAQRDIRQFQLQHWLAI
Description: Displacement of [3H]Nisoxetine from human NET by liquid scintillation assay

[11] = biological target: T1, 5-hydroxytryptamine receptor 2C; remark: listed apart in the source
Description: as §1

| SMILES | Ki [1] | Ki ([2]; read-out: Ki) [nM] | Ki ([3]; read-out: Ki) [nM] | Ki ([4]; read-out: Ki) [nM] | Ki [5] [nM] | Ki [6] [nM] | Ki [3] | Ki [2] | Ki [7] [nM] | Ki [8] [nM] | Ki [9] [nM] | Ki [10] [nM] | Ki [11] [nM] | Ki [4] |
| --- | --- | --- | --- | --- | --- | --- | --- | --- | --- | --- | --- | --- | --- | --- |
| Clc1ccc(N2CCCN(CCCc3nc4ccccc4s3)CC2)cc1 | Not Active | 2060 | 34 | – | – | – | – | – | – | – | – | – | – | – |
| O=C(CCCCN1CCCN(c2ccc(Cl)cc2)CC1)c1nc2ccccc2s1 | – | 2810 | 65 | – | – | – | – | – | – | – | – | – | – | – |
| O=C(CCCN1CCC(c2ccccc2)CC1)c1nc2ccccc2s1 | Not Active | – | – | 44.4 | 85 | 530 | – | – | – | – | – | – | – | – |
| O=C(CCCN1CCN(c2ncccn2)CC1)c1nc2ccccc2s1 | Not Active | – | – | 51.5 | 63 | – | Not Active | – | – | – | – | – | – | – |
| O=C(CCCN1CCN(c2ccc(Cl)cc2)CC1)c1nc2ccccc2s1 | Not Active | – | 491 | 342 | > 10000 | 8360 | – | Not Active | 2000 | – | – | – | – | – |
| c1ccc2c(c1)CN(CCCCc1nc3ccccc3s1)C2 | Not Active | 211 | 186 | 141 | 111 | 990 | – | – | > 10000 | – | – | – | – | – |
| O=C(CCCCN1CCN(c2ccc(Cl)cc2)CC1)c1nc2ccccc2s1 | Not Active | 2920 | 81 | 100 | 28.3 | 4790 | – | – | 523 | 4740 | 46 | > 10000 | – | – |
| O=C(CCCCN1CCN(c2ncccn2)CC1)c1nc2ccccc2s1 | Not Active | – | – | – | 3.6 | – | Not Active | – | – | – | – | – | – | – |
| Clc1ccc(N2CCCN(CCCCc3nc4ccccc4s3)CC2)cc1 | – | 413 | 65 | – | – | – | – | – | – | – | – | – | – | – |
| N#Cc1ccc2[nH]cc(CCCCN3CCN(c4ccc5oc(C(N)=O)cc5c4)CC3)c2c1 [VILAZODONE] | – | – | – | – | – | 666 | – | – | – | – | – | – | – | – |
| c1ccc2c(c1)CCN(CCCCc1nc3ccccc3s1)C2 | – | 35.6 | 1320 | 65.5 | 5.1 | 30.8 | – | – | 3810 | – | – | – | 6270 | – |
| O=C(CCCN1CCN(c2ccccc2)CC1)c1nc2ccccc2s1 | Not Active | – | > 10000 | – | 350 | > 10000 | – | Not Active | > 10000 | – | – | – | – | Not Active |
| O=C(CCCCN1Cc2ccccc2C1)c1nc2ccccc2s1 | Not Active | – | – | 512 | – | – | – | – | > 10000 | – | – | – | – | – |
| O=C(CCCCN1CCC(n2c(=O)[nH]c3cc(Cl)ccc32)CC1)c1nc2ccccc2s1 | Not Active | – | 565 | 1710 | 252 | 217 | – | – | 1560 | – | – | – | – | – |
| O=C(CCCN1CCCN(c2ccc(Cl)cc2)CC1)c1nc2ccccc2s1 | – | 356 | 5.3 | – | – | – | – | – | – | – | – | – | – | – |
| O=C(CCCCN1CCN(c2ccccc2)CC1)c1nc2ccccc2s1 | – | – | – | 105 | 3.6 | – | – | – | – | – | – | – | – | – |
| O=C(CCCCN1CCC2(CC1)C(=O)NCN2c1ccccc1)c1nc2ccccc2s1 | Not Active | 518 | 284 | 162 | 103 | – | – | – | 3720 | – | – | – | – | – |
| Clc1ccc(N2CCN(CCCCc3nc4ccccc4s3)CC2)cc1 | – | 329 | 166 | 4 | 90.5 | 219 | – | – | 132 | – | – | – | 6210 | – |
| c1cnc(N2CCN(CCCCc3nc4ccccc4s3)CC2)nc1 | – | 229 | – | 0.8 | – | – | Not Active | – | 224 | – | – | – | > 10000 | – |
| Clc1ccc(N2CCN(CCCc3nc4ccccc4s3)CC2)cc1 | – | 790 | 1180 | 31 | 312 | 2320 | – | – | 36 | – | – | – | 4650 | – |
| OC1(c2ccc(Cl)cc2)CCN(CCCCc2nc3ccccc3s2)CC1 | Not Active | 983 | 922 | 140 | 771 | 201 | – | – | 4260 | – | – | – | – | – |
| O=C(CCCCN1CCC(c2ccccc2)CC1)c1nc2ccccc2s1 | – | 107 | 64 | 180 | 7.3 | 642 | – | – | 3.4 | – | 52 | 49 | 3740 | – |
